Test results published in paper PMC12246613, “Molecular basis of acyl-CoA ester recognition by α-methylacyl-CoA racemase from Mycobacterium tuberculosis” (The Journal of Biological Chemistry, 2025).
Several values for one entry are separate records, joined by “and”; a condition that tells them apart may be missing. Equal entries are not always repeated.

How the values were obtained:
[1] = target: T1, MCR (α-methylacyl-CoA racemase from Mycobacterium tuberculosis) (Mycobacterium tuberculosis, UniProt O06543); assay: Colorimetric inhibition assay, dose-response curves; conditions: for Max % (coefficient): fitted maximum % activity; for Min % (coefficient): fitted minimum % activity; for Hillslope (coefficient): 4-parameter logistic fit; for pIC50 lower than expected based on LogP: from plot of pIC50 vs. calculated LogP
T1 sequence (O06543 whole entry): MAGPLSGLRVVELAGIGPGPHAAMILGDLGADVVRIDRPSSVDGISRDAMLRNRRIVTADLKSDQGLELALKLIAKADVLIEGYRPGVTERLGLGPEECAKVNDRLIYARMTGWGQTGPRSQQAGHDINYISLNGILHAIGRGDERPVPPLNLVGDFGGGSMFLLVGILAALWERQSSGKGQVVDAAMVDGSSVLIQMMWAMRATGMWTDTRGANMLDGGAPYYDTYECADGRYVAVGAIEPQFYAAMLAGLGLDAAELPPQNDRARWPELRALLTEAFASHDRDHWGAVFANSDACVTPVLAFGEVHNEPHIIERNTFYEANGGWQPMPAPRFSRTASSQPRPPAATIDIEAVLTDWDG

[2] = target: T1, MCR (α-methylacyl-CoA racemase from Mycobacterium tuberculosis); assay: Jump-dilution experiment (reversibility of inhibition); assay type: biochemical; set-up: made in house; conditions: 12-min time-course, inhibitor at 6x or 0.06x the IC50
[3] = target: T1, MCR (α-methylacyl-CoA racemase from Mycobacterium tuberculosis); assay: Kinetic assay (Ki and mode of inhibition, colorimetric assay); assay type: biochemical; set-up: made in house
Method: Data was collected as previously described using ibuprofenoyl-CoA 1 at 0, 3.2, 10, and 32 μM, 3.12 nM MCR, and 50.2 to 576 μM substrate (final concentrations) in 50 mM NaH2PO4-NaOH, 100 mM NaCl, and 1 mM EDTA, pH 7.4 and 3% (v/v) DMSO. Enzyme and inhibitor stock solutions were pre-incubated together for 10 min before initiating the assay. Rates were determined using ICEKAT ([46], [47]), with logarithmic fit of the data and correction of rates for delays between reaction initiation and first read. Data was analyzed using SigmaPlot 15.0 using Simple EK and the enzyme kinetics macro, with the correct inhibition model selected using graphs (Fig. S19, A–G) and statistical ranking of models. The determined Ki value is the mean ± SEM for three independent repeats.

human AMACR 1A = conditions: cited from earlier work
[4] = target: T1, MCR (α-methylacyl-CoA racemase from Mycobacterium tuberculosis); assay: Deuterium-exchange assay (substrate α-proton exchange, 1H NMR); assay type: biochemical; set-up: made in house; conditions: 100 μM acyl-CoA, 2.34 nM MCR, ca. 85% 2H2O, 30 °C
Method: Exchange of substrate α-protons was assessed using the deuterium-exchange assay as previously described ([19], [32]). Assay mixtures contained 55 ng (2.34 nM) of active or heat-inactivated MCR, 100 μM acyl-CoA, 50 mM NaH2PO4-NaOH, pH 7.4 and ca. 85% (v/v) ^2H2O in a total volume of 600 μl. Fenoprofenoyl-CoA 2 was used as a positive control. Reactions were initiated by the addition of enzyme, and reaction mixtures were incubated at 30 °C for 1 h before quenching at 55 °C for 10 min. NMR data were collected on a Bruker Avance Neo operating at 500.13 MHz for proton at 25 °C. Solvent suppression was achieved using a pre-saturation experiment. Typically, 128 transients were recorded. Data were processed using Topspin 4.0.7. Analysis of deuterium-exchange is based upon changes in intensity of either the substrate methine protons in the α-position or by the effects of the loss of those α-proton on a coupled methyl group.

MCR = test system: MCR; set-up: method as in PMID 26759836; conditions: cited from earlier work
[5] = LogIC50 (coefficient), individual independent repeats 1-3, 4-parameter logistic fit of mean % activity (2 technical repeats)
[6] = individual independent repeats 1-3
[7] = pIC50, mean ± SEM, n = 3, colorimetric assay, 96 μM substrate, 3.12 nM MCR, 10 min pre-incubation

Structure (SMILES)	IC50 [1, 5]	Max % (coefficient) [1, 6]	Min % (coefficient) [1, 6]	Hillslope (coefficient) [1, 6]	IC50 [1, 7] [µM]	also measured
CC(C)Cc1ccc(C(C)C(=O)SCCNC(=O)CCNC(=O)C(O)C(C)(C)COP(=O)(O)OP(=O)(O)OCC2OC(n3cnc4c(N)ncnc43)C(O)C2OP(=O)(O)O)cc1 (racemic) [compound 1, ±-Ibuprofenoyl-CoA]	10.9 µM and 8.94 µM and 7.48 µM	105.5482% and 98.8641% and 101.2444%	2.6168% and 2.9187% and 2.6510%	-0.9604 and -0.9180 and -0.9734	8.91	potency on MCR relative to human AMACR (fold less potent) ([1]; MCR versus human AMACR): ~20 fold; reversibility of inhibition [2]: reversible inhibition; Ki ([3]; individual repeats 1-3, inhibitor 0, 3.2, 10, 32 μM, 50.2 to 576 μM substrate): 3.06 µM and 2.44 µM and 3.62 µM; Ki ([3]; mean ± SEM, n = 3, competitive inhibition model): 3.04 ± 0.34 µM; mode of inhibition ([3]; Lineweaver-Burk plot and statistical ranking of models): competitive inhibition; Ki (human AMACR 1A; human AMACR 1A, mean ± SEM, n = 1): 0.06 ± 0.00478 µM
CC(C(=O)SCCNC(=O)CCNC(=O)C(O)C(C)(C)COP(=O)(O)OP(=O)(O)OCC1OC(n2cnc3c(N)ncnc32)C(O)C1OP(=O)(O)O)c1cccc(Oc2ccccc2)c1 (racemic) [compound 2, ±-Fenoprofenoyl-CoA]	20.4 µM and 11.7 µM and 14.2 µM	99.3868% and 110.2399% and 93.4385%	-1.0173% and 2.2137% and -0.7388%	-0.8331 and -0.7292 and -0.8187	15.1	relative inhibitor potency (human AMACR 1A; human AMACR): most potent inhibitor
CC(C(=O)SCCNC(=O)CCNC(=O)C(O)C(C)(C)COP(=O)(O)OP(=O)(O)OCC1OC(n2cnc3c(N)ncnc32)C(O)C1OP(=O)(O)O)c1ccc(-c2ccccc2)c(F)c1 (racemic) [compound 4, ±-Flurbiprofenoyl-CoA]	13.1 µM and 21.1 µM and 21.2 µM	97.7981% and 95.9188% and 94.6575%	1.7221% and 0.8368% and 2.1053%	-0.9708 and -1.0277 and -1.0055	18.2	
CC(C(=O)SCCNC(=O)CCNC(=O)C(O)C(C)(C)COP(=O)(O)OP(=O)(O)OCC1OC(n2cnc3c(N)ncnc32)C(O)C1OP(=O)(O)O)c1cccc(C(=O)c2ccccc2)c1 (centres unmarked) [compound 3, S-Ketoprofenoyl-CoA]	31.5 µM and 30.8 µM	100.4116% and 96.3493% and 103.0106%	-9.0253% and -2.7332% and -8.7722%	-0.6349 and -0.7776 and -0.7146	31.6	pIC50 lower than expected based on LogP [1]: approximately 0.3
COc1ccc2cc(C(C)C(=O)SCCNC(=O)CCNC(=O)C(O)C(C)(C)COP(=O)(O)OP(=O)(O)OCC3OC(n4cnc5c(N)ncnc54)C(O)C3OP(=O)(O)O)ccc2c1 (centres unmarked) [compound 5, S-Naproxenoyl-CoA]	19.5 µM and 15.6 µM and 15.5 µM	99.5824% and 102.2413% and 102.0390%	-0.6400% and -0.5309% and -2.7274%	-0.7858 and -0.8072 and -0.6833	17	pIC50 lower than expected based on LogP [1]: approximately 0.3
CCCCCCCCC(C)C(=O)SCCNC(=O)CCNC(=O)[C@H](O)C(C)(C)COP(=O)(O)OP(=O)(O)OC[C@H]1O[C@@H](n2cnc3c(N)ncnc32)[C@H](O)[C@@H]1OP(=O)(O)O (some centres unmarked) [compound 6, S-2-Methyldecanoyl-CoA]	62.8 µM and 67.4 µM and 46.5 µM	104.1285% and 101.8704% and 101.0137%	10.2466% and 13.4630% and 9.4607%	-1.5837 and -2.4923 and -1.4587	58.9	
CCCCCCCCCC(=O)SCCNC(=O)CCNC(=O)C(O)C(C)(C)COP(=O)(O)OP(=O)(O)OCC1OC(n2cnc3c(N)ncnc32)C(O)C1OP(=O)(O)O (centres unmarked) [compound 7, Decanoyl-CoA]					~100	
CCCCCCCC(=O)SCCNC(=O)CCNC(=O)C(O)C(C)(C)COP(=O)(O)OP(=O)(O)OCC1OC(n2cnc3c(N)ncnc32)C(O)C1OP(=O)(O)O (centres unmarked) [compound 8, Octanoyl-CoA]					~100	
CCCCCC(=O)SCCNC(=O)CCNC(=O)C(O)C(C)(C)COP(=O)(O)OP(=O)(O)OCC1OC(n2cnc3c(N)ncnc32)C(O)C1OP(=O)(O)O (centres unmarked) [compound 9, Hexanoyl-CoA]					~316	
CCCC(=O)SCCNC(=O)CCNC(=O)C(O)C(C)(C)COP(=O)(O)OP(=O)(O)OCC1OC(n2cnc3c(N)ncnc32)C(O)C1OP(=O)(O)O (centres unmarked) [compound 10, n-Butanoyl-CoA]					~562	
CC(=O)SCCNC(=O)CCNC(=O)C(O)C(C)(C)COP(=O)(O)OP(=O)(O)OCC1OC(n2cnc3c(N)ncnc32)C(O)C1OP(=O)(O)O (centres unmarked) [compound 11, Acetyl-CoA]					~1000	
CC(C)C(=O)SCCNC(=O)CCNC(=O)C(O)C(C)(C)COP(=O)(O)OP(=O)(O)OCC1OC(n2cnc3c(N)ncnc32)C(O)C1OP(=O)(O)O (centres unmarked) [compound 12, Isobutanoyl-CoA]					~1000	α-proton exchange [4]: significant α-proton exchange
CC(C)(COP(=O)(O)OP(=O)(O)OC[C@H]1O[C@@H](n2cnc3c(N)ncnc32)[C@H](O)[C@@H]1OP(=O)(O)O)[C@@H](O)C(=O)NCCC(=O)NCCSC(=O)C(c1ccccc1)c1ccccc1 [diphenylacetyl-CoA]						α-proton exchange (MCR): did not undergo α-proton exchange
